# Measured values as given in US20110104055A1, “SUBSTITUTED N-ARYL BENZAMIDES AND RELATED COMPOUNDS FOR TREATMENT OF AMYLOID DISEASES AND SYNUCLEINOPATHIES” (priority 2002, published 2011).
# What was measured:
# Type in all cases: biochemical
# Aβ 1-42 fibrils [1] = target: T1, Aβ 1-42 fibrils (Homo sapiens, UniProt P05067); experiment: Congo red binding assay, Aβ 1-42 fibrils (Example 11); conditions: 3-day incubation
# T1 construct: purchased Bachem Inc
# Method: (§1) In the Congo red binding assay, the ability of a test compound to alter amyloid (in this case, Aβ) binding to Congo red is quantified. In this assay, Aβ 1-42 and test compounds were incubated for 3 days and then vacuum filtered through a 0.2 μm filter. The amount of Aβ 1-42 retained in the filter was then quantitated following staining of the filter with Congo red. After appropriate washing of the filter, any lowering of the Congo red color on the filter in the presence of the test compound (compared to the Congo red staining of the amyloid protein in the absence of the test compound) was indicative of the test compound's ability to diminish/alter the amount of aggregated and congophilic Aβ.
# In one study, the ability of Aβ fibrils to bind Congo red in the absence or presence of increasing amounts of the compounds or EDTA (at Aβ:test compound weight ratios of 1:1, 1:0.1, 1:0.01 or 1:0.001) was determined.
# Aβ 1-42 fibrils [2] = target: T1, Aβ 1-42 fibrils; experiment: Thioflavin T fluorometry, disruption of pre-formed Aβ 1-42 fibrils (Example 6); conditions: 3 days; for % inhibition of Aβ (Thioflavin T fluorometry): 25 μM pre-fibrillized Aβ 1-42, 37° C.
# Method: The biological activity of the compounds provided herein as disruptors/inhibitors of Alzheimer's disease β-amyloid protein (Aβ) fibrils, type 2 diabetes IAPP fibrils and Parkinson's disease NAC fibrils was assessed by determining the efficacy of the compounds to cause a disassembly/disruption of pre-formed amyloid fibrils of Alzheimer's disease (i.e. consisting of Aβ 1-42 fibrils), IAPP fibrils and Parkinson's disease NAC fibrils. In one study, Thioflavin T fluorometry was used to determine the effects of the compounds, and of EDTA (as a negative control). In this assay Thioflavin T binds specifically to fibrillar amyloid, and this binding produces a fluorescence enhancement at 485 nm that is directly proportional to the amount of fibrils present. The higher the fluorescence, the greater the amount of fibrils present (Naki et al, Lab. Invest. 65:104-110, 1991; Levine III, Protein Sci. 2:404-410, 1993; Amyloid: Int. J. Exp. Clin. Invest. 2:1-6, 1995). The disruption of Aβ 1-42, even in its monomeric form, was confirmed by a study involving the use of SDS-PAGE and Western blotting methods.
# In one study, Thioflavin T fluorometry was used to determine the effects of the compounds, and of EDTA (as a negative control). In this assay Thioflavin T binds specifically to fibrillar amyloid, and this binding produces a fluorescence enhancement at 485 nm that is directly proportional to the amount of amyloid fibrils formed. The higher the fluorescence, the greater the amount of amyloid fibrils formed (Naki et al., Lab. Invest. 65:104-110, 1991; Levine III, Protein Sci. 2:404-410, 1993; Amyloid: Int. J. Exp. Clin. Invest. 2:1-6, 1995).
# (§2) Following 3 days of co-incubation, 50 μl of each incubation mixture was transferred into a 96-well microtiter plate containing 150 μl of distilled water and 50 μl of a Thioflavin T solution (i.e. 500 mM Thioflavin T in 250 mM phosphate buffer, pH 6.8). The fluorescence was read at 485 nm (444 nm excitation wavelength) using an ELISA plate fluorometer after subtraction with buffer alone or compound alone, as blank).
# α-synuclein fibrils [3] = target: T2, α-synuclein fibrils (Homo sapiens, UniProt P37840); experiment: Congo red binding assay, α-synuclein fibrils (Example 12); conditions: 3-day incubation
# T2 construct: purchased rPeptide
# Method: as §1, with “of a given test compound” for “of a test compound”, “this case, α-synuclein) binding to” for “this case, Aβ) binding to”, “this assay, α-synuclein and test” for “this assay, Aβ 1-42 and test”, “amount of α-synuclein retained in” for “amount of Aβ 1-42 retained in”, “and congophilic α-synuclein.” for “and congophilic Aβ.”
# In one study, the ability of α-synuclein fibrils to bind Congo red in the absence or presence of increasing amounts of compounds DC-0051-F1, F2, F3, F4, F5, F6 and EDTA (at α-synuclein:test compound weight ratios of 1:1, 1:0.1, 1:0.01 or 1:0.001) was determined.
# Aβ 1-42 = target: T3, Aβ 1-42 (Homo sapiens, UniProt P05067); experiment: SDS-PAGE/Western blot of Aβ 1-42 after incubation with compounds; conditions: 25 μM pre-fibrillized Aβ 1-42, 37° C., 3 days, filtrate of 0.2 μm filter, 6E10 antibody
# T3 construct: 25 μM of pre-fibrillized Aβ 1-42 (Bachem Inc) was incubated at 37° C; purchased Bachem Inc
# Method: In this latter study, triplicate samples of pre-fibiillized Aβ 1-42 (25 μM) was incubated at 37° C. for 3 days, alone or in the presence of the compounds or EDTA. Five micrograms of each sample was then filtered through a 0.2 μm filter. Protein recovered from the filtrate was then loaded, and ran on a 10-20% Tris-Tricine SDS-PAGE, blotted to nitrocellulose and detected using an Aβ-antibody (clone 6E10; Senetek).
# α-synuclein fibrils [4] = target: T2, α-synuclein fibrils; experiment: Thioflavin T fluorometry, disruption of pre-formed α-synuclein fibrils (Example 12); conditions: 3 days; for % Inhibition α-synuclein (result ± S.D.), Thioflavin T fluorometry: 30 μg pre-fibrillized α-synuclein, 37° C.
# Method: In this assay, Thioflavin T binds specifically to α-synuclein fibrils, and this binding produces a fluorescence enhancement at 485 nm that is directly proportional to the amount of α-synuclein fibrils present. The higher the fluorescence, the greater the amount of α-synuclein fibrils present (Naki et al, Lab. Invest. 65:104-110, 1991; Levine III, Protein Sci. 2:404-410, 1993; Amyloid: Int. J. Exp. Clin. Invest. 2:1-6, 1995).
# as §2, with “In this study, 30 μg of pre-fibrillized α-synuclein (rPeptide) was incubated at 37° C. for” for “Following”, “days either alone or in the presence of compounds DC-0051-F1, F2, F3, F4, F5, F6 or EDTA (at α-synuclein:test compound weight ratios of 1:1, 1:0.1, 1:0.01 or 1:0.001). Following 3-days” for “days”, “blank.” for “blank).”
# [5] = Aβ:test compound wt/wt ratio 1:0.01
# [6] = Aβ:test compound wt/wt ratio 1:1
# [7] = Thioflavin T fluorometry, all concentrations tested
# [8] = α-synuclein:test compound wt/wt ratio 1:0.001
# [9] = α-synuclein:test compound wt/wt ratio 1:0.01
# [10] = α-synuclein:test compound wt/wt ratio 1:0.1
# [11] = α-synuclein:test compound wt/wt ratio 1:1
# T1 sequence (P05067 672-713): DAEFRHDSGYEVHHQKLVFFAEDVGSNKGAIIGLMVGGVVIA
# T3 sequence (P05067 672-713): as above
smiles,measurement,setting,value
O=C(O)CN(CCN(CC(=O)O)CC(=O)O)CC(=O)O [EDTA],"% Inhibition Aβ (result ± S.D.), Congo red binding",Aβ 1-42 fibrils [1]; Aβ:test compound wt/wt ratio 1:0.001,1.2 ± 7.95%
same,"% Inhibition Aβ (result ± S.D.), Congo red binding",Aβ 1-42 fibrils [1]; [5],8.4 ± 4.00%
same,"% Inhibition Aβ (result ± S.D.), Congo red binding",Aβ 1-42 fibrils [1]; Aβ:test compound wt/wt ratio 1:0.1,0.0 ± 6.83%
same,"% Inhibition Aβ (result ± S.D.), Congo red binding",Aβ 1-42 fibrils [1]; [6],8.4 ± 2.74%
same,"inhibition of Aβ 1-42 fibril binding to Congo red, in words",Aβ 1-42 fibrils [1]; all concentrations tested,no significant inhibition
same,% inhibition of Aβ (Thioflavin T fluorometry),Aβ 1-42 fibrils [2]; [5],0.2 ± 3.03%
same,% inhibition of Aβ (Thioflavin T fluorometry),Aβ 1-42 fibrils [2]; [6],0.0 ± 3.59%
same,"disruption/disassembly of preformed Aβ 1-42 fibrils, in words",Aβ 1-42 fibrils [2]; [7],no significant inhibition/disruption
same,"inhibition of α-synuclein fibril binding to Congo red, in words",α-synuclein fibrils [3]; all concentrations tested,no significant inhibition
same,"% Inhibition α-synuclein (result ± S.D.), Congo red binding",α-synuclein fibrils [3]; [8],3.3 ± 1.85%
same,"% Inhibition α-synuclein (result ± S.D.), Congo red binding",α-synuclein fibrils [3]; [9],2.9 ± 5.0%
same,"% Inhibition α-synuclein (result ± S.D.), Congo red binding",α-synuclein fibrils [3]; [10],2.2 ± 5.16%
same,"% Inhibition α-synuclein (result ± S.D.), Congo red binding",α-synuclein fibrils [3]; [11],0.0 ± 5.50%
same,detection of Aβ 1-42 monomers (~4 kilodalton band) after incubation,Aβ 1-42,detected as a ˜4 kilodalton band
same,"disruption/disassembly of pre-formed α-synuclein fibrils, in words",α-synuclein fibrils [4]; [7],no significant inhibition
same,"% Inhibition α-synuclein (result ± S.D.), Thioflavin T fluorometry",α-synuclein fibrils [4]; [8],0.0 ± 4.11%
same,"% Inhibition α-synuclein (result ± S.D.), Thioflavin T fluorometry",α-synuclein fibrils [4]; [9],0.0 ± 17.06%
same,"% Inhibition α-synuclein (result ± S.D.), Thioflavin T fluorometry",α-synuclein fibrils [4]; [10],0.0 ± 6.97%
same,"% Inhibition α-synuclein (result ± S.D.), Thioflavin T fluorometry",α-synuclein fibrils [4]; [11],0.0 ± 2.03%
